Laboratory results published in patent US20240294467A1, “USP9X Inhibitors” (ProDeg, LLC, priority 2021, published 2024).
Where two headings read alike, the source gives them in different places.

Assays:
USP9X [1] = biological target: T1, USP9X (Homo sapiens (Human), UniProt Q93008); test: USP9X enzyme activity assay, ubiquitin-rhodamine110 substrate; details: for reduction of USP9X activity: higher concentrations of compound (>10 μM)
USP9X [2] = biological target: T1, USP9X; test: Steady-state enzyme inhibition kinetics of USP9X; assay type: biochemical
From the text: The data were fit to a general model for enzyme inhibition (FIG. 1E) so the values of the parameters determined from the assays specified the mode of inhibition. For example, in the case of α=1 and β=0, it corresponded to purely non-competitive inhibition. For α=infinity and p=1, it corresponded to purely competitive inhibition. The values of all the parameters, KS, KI, kcat, α, and β could be determined from the steady state measurements. The enzyme reactions were set up as described in the Inhibiting the catalytic activity of USP9X section. The concentration of the substrate ubqiutin-rhodamine110 was varied. The initial rates of the reactions were determined at several concentrations of the inhibitor Compound 2A. In order to determine the values of the parameters KS and kcat, the reaction rates in the absence of the inhibitor Compound 2A, the initial reaction rate data were fit to the standard Michaelis-Menten equation v=Vmax [S]/(Km+[S]). The values of α and β could then be determined by fitting the initial rate data of the enzyme reaction at various concentrations of Compound 2A to a modified version of the Michaelis-Menten equation, designating both Vmax and KS apparent to distinguish the apparent values of the parameters determined from these plots to the true values for these parameters determined from the steady state kinetics in the absence of Compound 2A. The values of α and β could be determined from the variation of the slopes and intercepts of the series of double reciprocal plots of 1/v versus 1/[S] for each concentration of Compound 2A. […] The two values determined for KI were from the two different plots.
The two values for KI were determined by two different methods for determining this parameter from the kinetic data: 1 represented a value determined from the slope of the 1/A intercept vs 1/[I] plot; 2 represented a value determined from the y intercept of the 1/A slope vs 1/[I] plot. […] Only the values of the parameters varied for the compounds.

[3] = read-out: USP9X IC50/UM, Table 8

T1 sequence (Q93008 whole entry): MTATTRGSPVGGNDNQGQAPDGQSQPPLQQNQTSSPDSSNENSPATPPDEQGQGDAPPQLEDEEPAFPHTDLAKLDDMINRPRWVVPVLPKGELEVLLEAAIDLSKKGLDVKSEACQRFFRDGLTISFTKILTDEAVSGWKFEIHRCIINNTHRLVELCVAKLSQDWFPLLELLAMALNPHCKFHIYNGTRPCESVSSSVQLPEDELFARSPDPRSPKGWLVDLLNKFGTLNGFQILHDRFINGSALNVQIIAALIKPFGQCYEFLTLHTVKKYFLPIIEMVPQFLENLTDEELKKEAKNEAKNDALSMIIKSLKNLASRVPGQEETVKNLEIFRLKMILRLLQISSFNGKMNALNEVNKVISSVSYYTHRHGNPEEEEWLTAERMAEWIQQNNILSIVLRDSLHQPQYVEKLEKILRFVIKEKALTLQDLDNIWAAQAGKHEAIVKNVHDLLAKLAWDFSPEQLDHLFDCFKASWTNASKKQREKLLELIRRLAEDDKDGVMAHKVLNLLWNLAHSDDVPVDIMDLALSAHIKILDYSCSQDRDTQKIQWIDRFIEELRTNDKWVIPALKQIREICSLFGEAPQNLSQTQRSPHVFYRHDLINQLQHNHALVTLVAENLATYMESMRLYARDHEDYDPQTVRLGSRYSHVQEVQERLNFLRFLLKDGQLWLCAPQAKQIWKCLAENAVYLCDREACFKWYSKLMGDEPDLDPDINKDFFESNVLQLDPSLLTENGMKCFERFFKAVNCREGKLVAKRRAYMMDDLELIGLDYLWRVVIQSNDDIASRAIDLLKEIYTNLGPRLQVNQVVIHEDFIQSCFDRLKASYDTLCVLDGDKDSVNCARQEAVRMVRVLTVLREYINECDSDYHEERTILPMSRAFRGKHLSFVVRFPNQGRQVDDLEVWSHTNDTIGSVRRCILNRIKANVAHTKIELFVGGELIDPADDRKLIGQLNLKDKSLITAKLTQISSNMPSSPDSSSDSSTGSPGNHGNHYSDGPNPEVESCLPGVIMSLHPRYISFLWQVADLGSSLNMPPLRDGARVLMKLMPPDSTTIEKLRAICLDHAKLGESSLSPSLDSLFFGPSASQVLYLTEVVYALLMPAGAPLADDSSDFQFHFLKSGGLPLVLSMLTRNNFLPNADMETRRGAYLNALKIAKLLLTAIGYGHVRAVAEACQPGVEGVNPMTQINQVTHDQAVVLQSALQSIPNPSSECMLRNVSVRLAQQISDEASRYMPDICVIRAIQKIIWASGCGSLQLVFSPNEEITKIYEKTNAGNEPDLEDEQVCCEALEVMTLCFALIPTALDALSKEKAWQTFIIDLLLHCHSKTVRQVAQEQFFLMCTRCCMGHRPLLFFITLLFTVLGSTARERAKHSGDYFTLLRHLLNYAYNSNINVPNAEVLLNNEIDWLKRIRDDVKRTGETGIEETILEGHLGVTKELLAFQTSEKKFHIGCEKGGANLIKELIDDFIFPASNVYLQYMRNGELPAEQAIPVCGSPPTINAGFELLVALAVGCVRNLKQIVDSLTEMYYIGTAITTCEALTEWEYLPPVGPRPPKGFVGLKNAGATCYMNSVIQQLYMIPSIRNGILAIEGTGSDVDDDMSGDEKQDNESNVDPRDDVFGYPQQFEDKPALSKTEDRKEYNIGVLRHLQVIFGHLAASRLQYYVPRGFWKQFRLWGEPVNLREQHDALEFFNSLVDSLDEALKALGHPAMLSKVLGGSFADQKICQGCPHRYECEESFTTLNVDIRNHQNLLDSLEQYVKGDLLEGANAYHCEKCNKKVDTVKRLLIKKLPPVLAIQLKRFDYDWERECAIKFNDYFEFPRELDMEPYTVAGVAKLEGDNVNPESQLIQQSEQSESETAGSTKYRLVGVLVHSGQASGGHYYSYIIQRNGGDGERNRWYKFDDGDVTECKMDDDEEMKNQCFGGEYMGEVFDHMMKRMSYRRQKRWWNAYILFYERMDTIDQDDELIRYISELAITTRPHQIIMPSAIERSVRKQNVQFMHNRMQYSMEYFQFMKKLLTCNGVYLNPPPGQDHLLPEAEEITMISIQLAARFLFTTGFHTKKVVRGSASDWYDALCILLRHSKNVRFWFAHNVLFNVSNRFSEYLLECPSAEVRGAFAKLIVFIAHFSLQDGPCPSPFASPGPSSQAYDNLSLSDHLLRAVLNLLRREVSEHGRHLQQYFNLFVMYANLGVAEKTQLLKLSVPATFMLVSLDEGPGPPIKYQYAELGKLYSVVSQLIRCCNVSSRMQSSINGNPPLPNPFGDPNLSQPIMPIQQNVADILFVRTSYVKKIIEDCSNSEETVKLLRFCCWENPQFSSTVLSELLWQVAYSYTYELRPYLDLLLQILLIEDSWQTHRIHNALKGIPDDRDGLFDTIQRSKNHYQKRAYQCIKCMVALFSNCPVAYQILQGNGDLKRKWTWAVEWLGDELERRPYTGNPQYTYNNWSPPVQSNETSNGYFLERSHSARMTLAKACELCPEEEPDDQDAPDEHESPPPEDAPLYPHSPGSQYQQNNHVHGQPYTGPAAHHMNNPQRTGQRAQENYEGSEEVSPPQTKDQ

| Compound | IC50 (USP9X [1]; [3]) | further results |
| --- | --- | --- |
| CN1CCOc2ccc(c(F)c2)C(=O)NCc2ccc(F)c(c2)C(=O)N[C@@H](CC(C)(C)C)C(=O)Nc2ccc(cc2)CCN(C)C(=O)CC(C)(C)CC1=O [Compound 11A] |  | IC50 (USP9X [1]; read-out: IC50 for the inhibition of USP9X activity, ubiquitin-rhodamine110 substrate): 48 nM; IC50 (USP9X [1]; read-out: USP9X IC50 nM, Table 2): 48 nM; KS (USP9X [2]): 0.91 µM; VMAX RFU/min (USP9X [2]): 408 RFU/min; α (USP9X [2]): 2; β (USP9X [2]): 0.88; Ki (USP9X [2]; from the slope of the 1/Δ intercept vs 1/[I] plot, read-out: KI, nM (1)): 7 nM; Ki (USP9X [2]; from the y intercept of the 1/Δ slope vs 1/[I] plot, read-out: KI, nM (2)): 69 nM |
| CNCCOc1ccc(C(=O)NCc2cccc(C(=O)N[C@@H](C)C(=O)Nc3ccc(CCC(=O)O)cc3)c2)cc1 [Compound 33] |  | USP9X IC50/UM (USP9X [1]; Table 8): >50 UM |
| CNC(=O)[C@H](CC(C)(C)C)NC(=O)c1cccc(CNC(=O)c2ccc(OCCNC(=O)CC(C)(C)CC(=O)NCCc3ccc(NC(C)=O)cc3)cc2)c1 [Compound 68] |  | USP9X IC50/UM (USP9X [1]; Table 8): >50 UM |
| CNCCOc1ccc(C(=O)NCc2cccc(C(=O)N[C@@H](CC(C)(C)C)C(=O)Nc3ccc(CCc4ccccn4)cc3)c2)cc1 [Compound 6] | 700 nM |  |
| COc1ccc(NC(=O)[C@H](CC(C)(C)C)NC(=O)c2cccc(CNC(=O)c3ccc(OCCN(C)C)cc3)c2)cc1 [Compound 23] | 240 nM |  |
| CN(C)CCOc1ccc(C(=O)NCc2cccc(C(=O)N[C@@H](CC(C)(C)C)C(=O)Nc3ccc(CCN(C)C)cc3)c2)cc1 [Compound 13] | 44 nM |  |
| COC(=O)c1cccc(NC(=O)[C@H](CC(C)(C)C)NC(=O)c2cccc(CNC(=O)c3ccc(OCCN(C)C)cc3)c2)c1 [Compound 25] | 68 nM |  |
| CN(C)CCOc1ccc(C(=O)NCc2cccc(C(=O)N[C@@H](CC(C)(C)C)C(=O)Nc3ccc(CCc4ccccn4)cc3)c2)cc1 [Compound 7] | 590 nM |  |
| CC(=O)Nc1ccc(CCNC(=O)CC(C)(C)CC(=O)NCCOc2ccc(C(=O)NCc3cccc(C(=O)N[C@@H](CC(C)(C)C)C(=O)O)c3)cc2)cc1 [Compound 67] |  | USP9X IC50/UM (USP9X [1]; Table 8): >50 UM |
| CNCCOc1ccc(C(=O)NCc2cccc(C(=O)N[C@@H](CC(C)C)C(=O)Nc3ccc(CCC(=O)O)cc3)c2)cc1 [Compound 32] |  | USP9X IC50/UM (USP9X [1]; Table 8): >50 UM |
| CNCCOc1ccc(C(=O)NCc2cccc(C(=O)N[C@@H](CC3CCCCC3)C(=O)Nc3ccc(CCC(=O)O)cc3)c2)cc1 [Compound 37] |  | USP9X IC50/UM (USP9X [1]; Table 8): >50 UM |
| CNCCOc1ccc(C(=O)NCc2cccc(C(=O)N[C@@H](CC(C)(C)C)C(=O)Nc3ccc(CCC(=O)O)cc3)c2)cc1 [Compound 30] |  | USP9X IC50/UM (USP9X [1]; Table 8): >50 UM |
| ubiquitin aldehyde [reference compound] |  | effect on USP9X activity (USP9X [1]; ubiquitin-rhodamine110 substrate): completely abolished |
| CN(C)CCCNC(=O)[C@H](CC(C)(C)C)NC(=O)c1cccc(CNC(=O)c2ccc(OCCN(C)C)cc2)c1 [Compound 16] | 18000 nM |  |
| CNCCOc1ccc(C(=O)NCc2cccc(C(=O)N[C@@H](CC(C)(C)C)C(=O)Nc3ccc(CN4CCCC4)cc3)c2)cc1 [Compound 4] | 54 nM |  |
| CN(C)CCOc1ccc(C(=O)NCc2cccc(C(=O)N[C@@H](CC(C)(C)C)C(=O)NCc3ccccc3F)c2)cc1 [Compound 27] |  | USP9X IC50/UM (USP9X [1]; Table 8): >50 UM |
| CC(C)(C)C[C@H](NC(=O)c1cccc(CNC(=O)c2ccc(OCCNC(=O)CC(C)(C)CC(=O)NCCc3ccc(N)cc3)cc2)c1)C(=O)O [Compound 66] |  | USP9X IC50/UM (USP9X [1]; Table 8): >50 UM |
| CC(C)(C)C[C@@H]1NC(=O)c2cccc(c2)CNC(=O)c2ccc(cc2)OCCNC(=O)CCCCC(=O)N[C@H](C(=O)O)Cc2ccc(cc2)NC1=O [Compound 4A] |  | reduction of USP9X activity (USP9X [1]): approximately 60% |
| COCCNC(=O)[C@@H]1Cc2ccc(cc2)NC(=O)[C@H](CC(C)(C)C)NC(=O)c2cccc(c2)CNC(=O)c2ccc(cc2)OCCNC(=O)CC(C)(C)CC(=O)N1 [Compound 3A] |  | reduction of USP9X activity (USP9X [1]): approximately 60% |
| CN(C)CCOc1ccc(C(=O)NCc2cccc(C(=O)N[C@@H](CC(C)(C)C)C(=O)Nc3ccc(Cn4ccnc4)cc3)c2)cc1 [Compound 11] | 80 nM |  |
| CNCCOc1ccc(C(=O)NCc2cccc(C(=O)N[C@@H](CC(C)(C)C)C(=O)Nc3ccc(Cn4ccnc4)cc3)c2)cc1 [Compound 10] | 91 nM |  |
| CC(=O)NCc1cccc(C(=O)N[C@@H](CC(C)(C)C)C(=O)Nc2ccc(CCNC(=O)CC(C)(C)CC(=O)NCCOc3ccc(C(=O)O)cc3)cc2)c1 [Compound 73] | 15000 nM |  |
| CNCCOc1ccc(C(=O)NCc2cccc(C(=O)N[C@@H](CC(C)(C)C)C(=O)Nc3ccc(CCC(=O)O)cc3)c2)cc1 [Compound 3] | 280 nM |  |
| CN(C)CCOc1ccc(C(=O)NCc2cccc(C(=O)N[C@@H](CC(C)(C)C)C(=O)Nc3ccc4nccn4c3)c2)cc1 [Compound 20] | 63 nM |  |
| CN(C)CCOc1ccc(C(=O)NCc2cccc(C(=O)N[C@@H](CC(C)(C)C)C(=O)Nc3cccc(Cn4cccn4)c3)c2)cc1 [Compound 9] | 150 nM |  |
| CNC(=O)c1ccc(OCCNC(=O)CC(C)(C)CC(=O)NCCc2ccc(NC(=O)[C@H](CC(C)(C)C)NC(=O)c3cccc(CNC(C)=O)c3)cc2)cc1 [Compound 74] | 12000 nM |  |
| CNCCOc1ccc(C(=O)NCc2cccc(C(=O)N[C@@H](CC(C)(C)C)C(=O)Nc3cccc(Cn4cccn4)c3)c2)cc1 [Compound 8] | 1100 nM |  |
| CN(C)CCNC(=O)[C@H](CC(C)(C)C)NC(=O)c1cccc(CNC(=O)c2ccc(OCCN(C)C)cc2)c1 [Compound 15] | 23000 nM |  |

Second part, led by results:

| IC50 (USP9X [1]; [3]) | Compound | further results |
| --- | --- | --- |
| 760 nM | CNC(=O)CCc1ccc(NC(=O)[C@H](CC(C)(C)C)NC(=O)c2cc(CNC(=O)c3ccc(OC)cc3)ccc2F)cc1 [Compound 43] |  |
| 4700 nM | COc1ccc(C(=O)NCc2cccc(C(=O)N[C@@H](CC(C)(C)C)C(=O)Nc3ccc(CCC(=O)O)cc3)c2)cc1 [Compound 55] |  |
| 2100 nM | CNC(=O)CCc1ccc(NC(=O)[C@H](CC(C)(C)C)NC(=O)c2cccc(CNC(=O)c3ccccc3)c2)cc1 [Compound 45] |  |
| 2300 nM | CC(=O)NCc1cccc(C(=O)N[C@@H](CC(C)(C)C)C(=O)Nc2ccc(CCN(C)C)cc2)c1 [Compound 50] |  |
| 32000 nM | CN(C)CCOc1ccc(C(=O)NCc2cccc(C(=O)N[C@@H](CC(C)(C)C)C(=O)NCc3ccccn3)c2)cc1 [Compound 28] |  |
| 90 nM | CNC(=O)CCc1ccc(NC(=O)[C@H](CC(C)(C)C)NC(=O)c2cc(CNC(=O)c3ccc(OCCN(C)C)cc3)ccc2F)cc1 [Compound 41] |  |
| 4900 nM | CC(C)(C)C[C@H](NC(=O)c1cc(CNC(=O)c2ccccc2)ccc1F)C(=O)Nc1ccc(CCC(=O)O)cc1 [Compound 58] |  |
| 600 nM | CC(C)(C)CC(=O)NCCc1ccc(NC(=O)[C@H](CC(C)(C)C)NC(=O)c2cccc(CNC(=O)c3ccc(OCCO)cc3)c2)cc1 [Compound 65] |  |
| 320 nM | CN(C)CCc1ccc(NC(=O)[C@H](CC(C)(C)C)NC(=O)c2cccc(CNC(=O)c3ccccc3)c2)cc1 [Compound 47] |  |
| 5000 nM | CNC(=O)CCc1ccc(NC(=O)[C@H](CC(C)(C)C)NC(=O)c2cc(CNC(C)=O)ccc2F)cc1 [Compound 49] |  |
| 6900 nM | Cc1ccc(NC(=O)[C@H](CC(C)(C)C)NC(=O)c2cccc(CNC(=O)c3ccc(OCCO)cc3)c2)cc1 [Compound 62] |  |
| 220 nM | CC(C)(C)C[C@H](NC(=O)c1cccc(CNC(=O)c2ccc(OCCO)cc2)c1)C(=O)Nc1ccc(CCN)cc1 [Compound 63] |  |
| 360 nM | CNCCOc1ccc(C(=O)NCc2ccc(F)c(C(=O)N[C@@H](CC(C)(C)C)C(=O)Nc3ccc(CCC(=O)O)cc3)c2)cc1 [Compound 53] |  |
| 8900 nM | CNC(=O)CCc1ccc(NC(=O)[C@H](CC(C)(C)C)NC(=O)c2cccc(CNC(C)=O)c2)cc1 [Compound 48] |  |
| 13000 nM | CC(=O)NCc1ccc(F)c(C(=O)N[C@@H](CC(C)(C)C)C(=O)Nc2ccc(CCC(=O)O)cc2)c1 [Compound 60] |  |
